Test results taken from ChEMBL document CHEMBL3044767, “GdCl3 promoted synthesis of novel pyrimidine fused indazole derivatives and their anticancer activity” (Med Chem Res, 2012).
Converted amounts (≈) assume the structure as drawn.

Experiments:
U-937 [1] = assay: Cytotoxicity against Homo sapiens (human) U937 cells after 48 hr by MTT assay; assay type: functional, cell-based; settings: U-937, 48 h
THP-1 = assay: Cytotoxicity against Homo sapiens (human) THP1 cells after 48 hr by MTT assay; assay type: functional, cell-based; settings: THP-1, 48 h
U-937 [2] = assay: Ratio of etoposide IC50 to compound IC50 for Homo sapiens (human) U937 cells after 48 hr by MTT assay; assay type: functional

Row | SMILES | IC50 (U-937 [1]) [µg/mL] | IC50 (THP-1) [µg/mL] | Ratio IC50 (U-937 [2])
1 | N#Cc1c(C(F)(F)F)cc(-c2ccccc2)c2c3n(nc12)[C@H]1OCCC[C@H]1CN3 | 11.2 (≈ 28.2 µM) | 33.5 (≈ 84.1 µM) | –
2 | N#Cc1c(-c2ccccc2)cc(C(F)(F)F)c2c3n(nc12)C(c1ccccc1)CCN3 (configuration not stated) | 9.36 (≈ 22.4 µM) | – | 1.13
3 | C=CC1(C)CCNc2c3c(-c4ccccc4)cc(C(F)(F)F)c(C#N)c3nn21 (configuration not stated) | 9.73 (≈ 25.4 µM) | – | 1.09
4 | C=CC1(C)CCNc2c3c(C(F)(F)F)cc(-c4ccccc4)c(C#N)c3nn21 (configuration not stated) | 53.5 (≈ 140 µM) | – | –
5 | N#Cc1c(-c2ccccc2)cc(C(F)(F)F)c2c3n(nc12)[C@H]1C=CCC[C@H]1CN3 | 2.64 (≈ 6.69 µM) | – | 4
6 | N#Cc1c(C(F)(F)F)cc(-c2ccccc2)c2c3n(nc12)C(c1ccccc1)CCN3 (configuration not stated) | 7.92 (≈ 18.9 µM) | – | 1.33
7 | N#Cc1c(-c2ccccc2)cc(C(F)(F)F)c2c3n(nc12)[C@H]1OCCC[C@H]1CN3 | 6.49 (≈ 16.3 µM) | 65.4 (≈ 164 µM) | 1.63
8 | N#Cc1c(-c2ccccc2)cc(C(F)(F)F)c2c3n(nc12)C(c1ccccc1)C[C@H](c1ccccc1)N3 (some centres not stated) | 7.52 (≈ 15.2 µM) | – | 1.4
9 | C=CC1(C)C[C@H](c2ccccc2)Nc2c3c(-c4ccccc4)cc(C(F)(F)F)c(C#N)c3nn21 (some centres not stated) | 8.7 (≈ 19 µM) | 53.3 (≈ 116 µM) | 1.21
10 | N#Cc1c(C(F)(F)F)cc(-c2ccccc2)c2c3n(nc12)[C@H]1OCCC[C@H]1[C@H](c1ccccc1)N3 | 9.02 (≈ 19 µM) | 79.9 (≈ 168 µM) | 1.17
